Data reported in patent US20250230190A1, “COMPOSITION FOR ENHANCING ACTIVITY OF NATURAL KILLER CELLS” (Ingenium Therapeutics, priority 2021, published 2025).
Where no end group is shown, it is not given here.

Columns and labels:
NK92 cells [1] = assay: Recovery of cytotoxicity of NK92 cells decreased by TGF-β (calcein-AM release); format: cell-based; conditions: effector NK92 cells pretreated with 20 μM peptide or 5 μM SB431542 plus 10 ng/ml TGF-β; target cells H460, H3122, K562; E:T 20:1; 4 hours
Protocol: NK92 cells were cultured in a 37° C. CO2 incubator (water jacketed incubator, Thermo electron corporation) supplied with 5% CO2 by adding an α-MEM (Welgene) culture medium added with 12.5% fetal bovine serum (FBS, Corning, united states origin, 35-015-CV) and 12.5% horse serum (Gibco) according to ATCC culture conditions with 0.2 mM myo-inositol, 0.1 mM 2-mercaptoethanol, 0.02 mM folic acid, 1% antibiotics-antimycotic (Gibco) and IL-2 cytokine (Peprotech) at a concentration of 20 ng/ml to be used as a culture medium.
The cells were cultured in about 20 to 30 ml in a T-75 flask (Thermo) at a concentration of 1×10^5 cells/ml, and centrifuged at 1000 rpm for 5 minutes every 2 to 3 days using a centrifuge (Beckman Coulter) to remove the supernatant, and then the culture medium was replaced. […]
The target cells stained with calcein-AM in Example [2-2] were dispensed in a 96-well plate, respectively, and treated with the effector cells prepared in Example [2-1]. […] The culture medium cultured above was centrifuged at 100 rcf for 5 minutes to separate the supernatant, and 100 μl each was dispensed into a 96-well black plate, and then ELISA assay (Fluorescence 480 nm/530 nm, SpectraMax i3x Molecular Device) was performed.

[2] = tested on: H460 lung cancer cell line; assay: Recovery of sensitivity of NK cells to cancer cells decreased by TGF-β; format: cell-based; conditions: H460 target cells pretreated with 20 μM peptide or 5 μM SB431542 plus 10 ng/ml TGF-β; fresh NK92 effector cells, E:T 20:1; 4 hours
Protocol: To this end, first, 1×10^5 cells/ml of a H460 lung cancer cell line was added with 20 μM the peptide of Example [1-5] or 5 μM a TGF-β signal inhibitor SB431542, respectively, cultured at 37° C. for 2 hours, and then added with 10 ng/ml of TGF-β, and cultured again for 24 hours under the same conditions, respectively. Then, the cells were added with 20 μM the peptide of Example [1-5] or 5 μM SB431542, cultured at 37° C. for 2 hours, and then added with 10 ng/ml of TGF-β, and cultured under the same conditions for 24 hours, respectively. 1×10^6 cells/ml of the H460 cells cultured above were cultured for 1 hour at 37° C. with a culture medium added with 5 μl of calcein-AM (Invitrogen) and stained, and then centrifuged at 1000 rpm for 5 minutes and washed to be prepared as ‘target cells.’
As described above, the target cells stained with calcein-AM were dispensed in a 96-well plate, respectively, and treated with untreated (fresh) NK92 cells as effector cells at an E:T ratio of 20:1, and cultured at 37° C. for 4 hours. The culture medium cultured above was centrifuged at 100 rcf for 5 minutes to separate the supernatant, and 100 μl each was dispensed into a 96-well black plate, and then ELISA assay (Fluorescence 480 nm/530 nm, SpectraMax i3x Molecular Device) was performed.

NK92 cells [3] = assay: Fratricide inhibition of NK cells; format: cell-based; conditions: NK92 target cells pretreated with 20 μM peptide or 5 μM SB431542 plus 10 ng/ml TGF-β; fresh NK92 (20:1) or primary NK (10:1) effector cells; 4 hours
Protocol: To this end, 1×10^6 cells/ml of the NK92 cells cultured in the same manner as Example [2-1] were cultured for 1 hour at 37° C. with a culture medium added with 5 μl of calcein-AM (Invitrogen) and stained, and then centrifuged at 1000 rpm for 5 minutes and washed to be prepared as ‘target cells.’ As described above, the target cells stained with calcein-AM were dispensed in a 96-well plate, respectively, and treated with untreated (fresh) NK92 cells or primary NK cells as effector cells at the ratio of 20:1 or 10:1 in the same manner as Example [2-3], and cultured at 37° C. for 4 hours. The culture medium cultured above was centrifuged at 100 rcf for 5 minutes to separate the supernatant, and 100 μl each was dispensed into a 96-well black plate, and then ELISA assay (Fluorescence 480 nm/530 nm, SpectraMax i3x Molecular Device) was performed.

primary NK cells = assay: Recovery of cytotoxicity of primary NK cells decreased by TGF-β (calcein-AM release); format: cell-based, human; conditions: effector primary NK cells pretreated with 20 μM peptide plus 10 ng/ml TGF-β; target cells H460, H3122, K562; E:T 10:1; 4 hours
Protocol: 2 μl of Rosettesep Human CD3 depletion cocktail (STEMCELL technologies, catalog #15621) per 1 ml of blood was added to umbilical cord blood (IRB approval number P01-201610-31-002) donated from the hospital and reacted for 20 minutes. […] At this time, it could be noted that the blood and the Ficoll layer were not mixed. To separate the cell layer from the blood, red blood cells and CD3 cells were isolated and discharged from the blood by centrifugation under conditions of 2000 rpm and Decel 0 for 25 minutes using a centrifuge (Beckman Coulter). The CD3-isolated cells reacted with 10 ml of an ACK buffer for 10 minutes to remove remaining red blood cells, and then washed twice using phosphate-buffered saline (PBS) added with 2% FBS. The washing was performed by centrifuging at 1500 rpm for 5 minutes using a centrifuge (Beckman Coulter) to remove the supernatant. The cells obtained above were used to be cultured as NK cells.
The NK cells were cultured by adding alpha-MEM (Welgene) added with 10% FBS (Corning, United States origin, 35-015-CV) with 10 ng/ml IL-15 (Peprotech), 10 ng/ml IL-21 (Peprotech), […] hydrocortisone (Peprotech) and 1% antibiotics-antimycotic (Gibco). […]

| Compound | cytotoxicity of NK92 cells (NK92 cells [1]) | cytotoxicity of the NK cells for treated H460 cells [2] | fratricide activity of the NK cells (NK92 cells [3]) | cytotoxicity of primary NK cells (primary NK cells) |
| --- | --- | --- | --- | --- |
| NC(=O)c1ccc(-c2nc(-c3ccc4c(c3)OCO4)c(-c3ccccn3)[nH]2)cc1 [SB431542] | recovered | recovered again | significantly reduced |  |
| GSKKVILDLPLVI [peptide of Example [1-5]] | recovered | recovered again |  | equally confirmed |
